The NIST ThermoML archive (doi:10.1021/je400250u)

Tests used:
[1] = refractive index (Na D-line) (dimensionless); xn = mol fraction of the nth substance listed; conditions: 101 kPa, Liquid, Standard Abbe refractometry
[2] = xn = mol fraction of the nth substance listed; conditions: 100 kPa, Liquid; for viscosity: Capillary tube (Ostwald / Ubbelohde) method; for mass density: Vibrating tube method

C1CC[C@H]2CCCC[C@@H]2C1 [trans-decahydronaphthalene] + CCCCCCCCCC
Conditions | mass density, [2] [kg/m3] | refractive index, [1] | viscosity, [2] [mPa·s]
293.15 K, x1 = 0.1035 | 743.5 | – | 0.98
293.15 K, x1 = 0.2016 | 755.54 | – | 1.035
293.15 K, x1 = 0.3001 | 768 | – | 1.099
293.15 K, x1 = 0.3994 | 781.01 | – | 1.175
293.15 K, x1 = 0.5036 | 795.1 | – | 1.272
293.15 K, x1 = 0.6062 | 809.53 | – | 1.388
293.15 K, x1 = 0.6989 | 822.98 | – | 1.514
293.15 K, x1 = 0.7891 | 836.46 | – | 1.649
293.15 K, x1 = 0.8949 | 852.8 | – | 1.848
293.15 K, x1 = 1 | 869.78 | – | 2.112
298.15 K, x1 = 0.1035 | 739.74 | 1.4144 | 0.91
298.15 K, x1 = 0.2016 | 751.79 | 1.4192 | 0.958
298.15 K, x1 = 0.3001 | 764.27 | 1.4243 | 1.019
298.15 K, x1 = 0.3994 | 777.28 | 1.4301 | 1.087
298.15 K, x1 = 0.5036 | 791.38 | 1.4355 | 1.174
298.15 K, x1 = 0.6062 | 805.81 | 1.4414 | 1.28
298.15 K, x1 = 0.6989 | 819.26 | 1.4471 | 1.394
298.15 K, x1 = 0.7891 | 832.75 | 1.4524 | 1.514
298.15 K, x1 = 0.8949 | 849.09 | 1.4592 | 1.694
298.15 K, x1 = 1 | 866.07 | 1.4662 | 1.925
303.15 K, x1 = 0.1035 | 735.97 | – | 0.848
303.15 K, x1 = 0.2016 | 748.02 | – | 0.89
303.15 K, x1 = 0.3001 | 760.51 | – | 0.946
303.15 K, x1 = 0.3994 | 773.52 | – | 1.01
303.15 K, x1 = 0.5036 | 787.63 | – | 1.09
303.15 K, x1 = 0.6062 | 802.07 | – | 1.185
303.15 K, x1 = 0.6989 | 815.53 | – | 1.285
303.15 K, x1 = 0.7891 | 829.02 | – | 1.396
303.15 K, x1 = 0.8949 | 845.37 | – | 1.555
303.15 K, x1 = 1 | 862.34 | – | 1.769
308.15 K, x1 = 0.1035 | 732.17 | 1.4099 | 0.794
308.15 K, x1 = 0.2016 | 744.24 | 1.4153 | 0.834
308.15 K, x1 = 0.3001 | 756.74 | 1.4204 | 0.884
308.15 K, x1 = 0.3994 | 769.76 | 1.4256 | 0.941
308.15 K, x1 = 0.5036 | 783.88 | 1.4317 | 1.013
308.15 K, x1 = 0.6062 | 798.32 | 1.4371 | 1.101
308.15 K, x1 = 0.6989 | 811.79 | 1.4431 | 1.197
308.15 K, x1 = 0.7891 | 825.29 | 1.4484 | 1.293
308.15 K, x1 = 0.8949 | 841.64 | 1.4553 | 1.436
308.15 K, x1 = 1 | 858.61 | 1.4618 | 1.628
313.15 K, x1 = 0.1035 | 728.37 | – | 0.744
313.15 K, x1 = 0.2016 | 740.45 | – | 0.778
313.15 K, x1 = 0.3001 | 752.95 | – | 0.828
313.15 K, x1 = 0.3994 | 765.99 | – | 0.881
313.15 K, x1 = 0.5036 | 780.11 | – | 0.947
313.15 K, x1 = 0.6062 | 794.56 | – | 1.024
313.15 K, x1 = 0.6989 | 808.04 | – | 1.113
313.15 K, x1 = 0.7891 | 821.54 | – | 1.201
313.15 K, x1 = 0.8949 | 837.9 | – | 1.33
313.15 K, x1 = 1 | 854.88 | – | 1.505
318.15 K, x1 = 0.1035 | 724.55 | 1.4055 | 0.702
318.15 K, x1 = 0.2016 | 736.64 | 1.4112 | 0.734
318.15 K, x1 = 0.3001 | 749.16 | 1.4162 | 0.777
318.15 K, x1 = 0.3994 | 762.2 | 1.4211 | 0.826
318.15 K, x1 = 0.5036 | 776.34 | 1.4271 | 0.887
318.15 K, x1 = 0.6062 | 790.8 | 1.4336 | 0.959
318.15 K, x1 = 0.6989 | 804.28 | 1.4389 | 1.032
318.15 K, x1 = 0.7891 | 817.79 | 1.4448 | 1.119
318.15 K, x1 = 0.8949 | 834.16 | 1.4518 | 1.237
318.15 K, x1 = 1 | 851.14 | 1.4581 | 1.394
323.15 K, x1 = 0.1035 | 720.72 | – | 0.662
323.15 K, x1 = 0.2016 | 732.82 | – | 0.696
323.15 K, x1 = 0.3001 | 745.35 | – | 0.732
323.15 K, x1 = 0.3994 | 758.4 | – | 0.777
323.15 K, x1 = 0.5036 | 772.55 | – | 0.834
323.15 K, x1 = 0.6062 | 787.02 | – | 0.896
323.15 K, x1 = 0.6989 | 800.51 | – | 0.966
323.15 K, x1 = 0.7891 | 814.04 | – | 1.046
323.15 K, x1 = 0.8949 | 830.41 | – | 1.154
323.15 K, x1 = 1 | 847.4 | – | 1.295
